Assays:
[1] = target: T1, human Adenosine A2a receptor (Homo sapiens, UniProt P29274); assay: Adenosine receptor TR-FRET binding assay (CA200645 displacement), A2a; conditions: 100 nM CA200645, CHO cell membranes, 2 hours at room temperature
T1 construct: expressed in transfected cells; host or cells: CHO cell membranes

[2] = target: T2, human Adenosine A2b receptor (Homo sapiens, UniProt P29275); assay: Adenosine receptor TR-FRET binding assay (CA200645 displacement), A2b; conditions: 30 nM CA200645, CHO cell membranes, 2 hours at room temperature
T2 construct: expressed in transfected cells; host or cells: CHO cell membranes
T2 sequence (P29275 1-332): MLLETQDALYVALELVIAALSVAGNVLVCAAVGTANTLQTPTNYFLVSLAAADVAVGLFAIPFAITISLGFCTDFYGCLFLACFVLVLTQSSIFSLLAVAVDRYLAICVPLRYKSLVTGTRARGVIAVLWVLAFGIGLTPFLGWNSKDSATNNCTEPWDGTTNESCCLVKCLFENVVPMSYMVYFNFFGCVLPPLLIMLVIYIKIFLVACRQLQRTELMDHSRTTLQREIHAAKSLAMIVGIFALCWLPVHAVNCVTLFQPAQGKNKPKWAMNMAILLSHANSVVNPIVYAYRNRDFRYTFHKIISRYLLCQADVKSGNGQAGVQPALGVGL

human PBMCs = assay: CD3/CD28 stimulated IL-2 release NECA reversal assay in human PBMCs; type: cell-based; conditions: PBMC, CD3/CD28 antibody stimulated, 1 uM NECA, 24 hours, IL-2 in culture supernatant;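 further: dose-response as % inhibition where 100% equals no-NECA control wells with CD3/CD28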
How it was run: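 PBMCs from citrated donor blood, 50,000 cells/well on plate-bound CD3 antibody (1 ug/ml), with 1 ug/ml CD28 antibody, 1 uM NECA and antagonist at 0.003-10 μM final. After 24 h at 37° C, supernatant IL-2 was measured by MSD immunoassay.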

[3] = test system: CD8+ T cells in human whole blood; assay: Measurement of pCREB in CD8+ T cells in human whole blood; type: cell-based; conditions: T-cell, 1 h; heparinised human whole blood, rolipram, 3 μM NECA, 60 min, phospho-CREB in CD8+ T cells by FACS
Experimental: Heparinised human whole blood was pre-incubated at 37° C. with serial dilutions of A2a antagonists for 20 min. and the phosphodiesterase inhibitor rolipram to amplify the pCREB response. The adenosine receptor agonist NECA is then added at a final concentration of 3 μM and following a 60 min incubation the blood is fixed and red blood cells lysed. White blood cells are isolated, permeabilized and stained with directly conjugated fluorescent antibodies to phospho-CREB (Alexa Fluor 488) and CD8 (Alexa Fluor 647) and the level of phospho-CREB in CD8+ T cells is measured by FACS using a BD Accuri C6 Flow Cytometer.

[4] = target: T3, human Adenosine A1 receptor (Homo sapiens, UniProt P30542); assay: Adenosine receptor TR-FRET binding assay (CA200645 displacement), A1
T3 sequence (P30542 1-326): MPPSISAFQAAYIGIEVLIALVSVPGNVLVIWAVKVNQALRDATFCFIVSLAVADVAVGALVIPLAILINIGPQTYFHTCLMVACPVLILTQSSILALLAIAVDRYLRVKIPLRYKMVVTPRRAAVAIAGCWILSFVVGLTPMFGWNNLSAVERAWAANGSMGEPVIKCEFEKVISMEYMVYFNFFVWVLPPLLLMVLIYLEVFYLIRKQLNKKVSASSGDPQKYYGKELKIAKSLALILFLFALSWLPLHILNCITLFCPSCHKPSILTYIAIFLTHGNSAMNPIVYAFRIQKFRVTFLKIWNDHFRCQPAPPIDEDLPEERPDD

[5] = target: T4, human Adenosine A3 receptor (Homo sapiens, UniProt P0DMS8); assay: Adenosine receptor TR-FRET binding assay (CA200645 displacement), A3
T4 sequence (P0DMS8 1-318): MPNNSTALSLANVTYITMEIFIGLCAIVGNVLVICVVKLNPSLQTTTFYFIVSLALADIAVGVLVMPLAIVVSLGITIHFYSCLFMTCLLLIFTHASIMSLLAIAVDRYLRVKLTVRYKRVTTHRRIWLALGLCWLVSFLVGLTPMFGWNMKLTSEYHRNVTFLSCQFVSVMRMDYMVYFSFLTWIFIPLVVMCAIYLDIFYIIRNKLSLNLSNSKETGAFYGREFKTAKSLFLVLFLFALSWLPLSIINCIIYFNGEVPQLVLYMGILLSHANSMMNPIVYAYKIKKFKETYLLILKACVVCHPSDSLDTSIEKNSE

T1 sequence (P29274 whole entry): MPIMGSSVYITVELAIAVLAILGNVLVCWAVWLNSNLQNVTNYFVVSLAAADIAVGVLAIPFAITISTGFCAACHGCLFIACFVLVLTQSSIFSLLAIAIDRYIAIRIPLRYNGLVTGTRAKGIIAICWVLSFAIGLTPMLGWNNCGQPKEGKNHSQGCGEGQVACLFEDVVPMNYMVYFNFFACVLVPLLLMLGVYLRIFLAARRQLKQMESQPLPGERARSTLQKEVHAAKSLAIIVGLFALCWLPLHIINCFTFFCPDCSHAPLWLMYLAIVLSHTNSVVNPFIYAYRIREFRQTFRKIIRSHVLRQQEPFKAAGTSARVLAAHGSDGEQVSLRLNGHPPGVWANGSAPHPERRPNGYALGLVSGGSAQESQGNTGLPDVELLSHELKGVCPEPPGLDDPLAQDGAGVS

Compound	Ki [1] [nM]	Ki [2] [nM]	IC50 [3] [nM]	Ki [4] [nM]	Ki [5] [nM]	IC50 (human PBMCs) [nM]
Cc1cc(-c2c(-c3cccc(C#N)c3)nn3ccc(N[C@H]4C[C@@H](O)C4)nc23)cc(Cl)n1 [Example 2.10]	1.4	10	1190	119	1550	48
Cc1cc(-c2c(-c3cccc(C#N)c3C)nn3ccc(C(=O)N[C@@H](C)C(C)(C)O)nc23)cc(C)n1 [Example 104.1, 2-(3-Cyano-2-methyl-phenyl)-3-(2,6-dimethyl-4-pyridyl)-N-[(1S)-2-hydroxy-1,2-dimethyl-propyl]pyrazolo[1,5-a]pyrimidine-5-carboxamide]	1.2	111	30	398	> 1000	4
Cc1cc(-c2c(-c3cccc(C#N)c3)nn3ccc(C(=O)NC(C)(C)C)nc23)cc(Cl)n1 [Example 5.1]	0.1	16	2860	477	> 1000	20
Cc1cc(-c2c(-c3cccc(C#N)c3)nn3ccc(C(=O)NCC(C)(C)O)nc23)cc(C#N)n1 [Example 12.8, 3-(2-Cyano-6-methyl-4-pyridyl)-2-(3-cyanophenyl)-N-(2-hydroxy-2-methyl-propyl)pyrazolo[1,5-a]pyrimidine-5-carboxamide]	3.4	177	350	575	> 1000	35
Cc1cc(-c2c(-c3cccc(C#N)c3)nn3ccc(C(=O)N(C)CC(C)(C)O)nc23)cc(Cl)n1 [Example 6.18, 3-(2-Chloro-6-methyl-4-pyridyl)-2-(3-cyanophenyl)-N-(2-hydroxy-2-methyl-propyl)-N-methyl-pyrazolo[1,5-a]pyrimidine-5-carboxamide]	4.2	13	1690	125	> 1000	93
Cc1cc(-c2c(-c3cccc(C#N)c3)nn3ccc(C(=O)N[C@@H](C)C(C)(C)O)nc23)cc(Cl)n1 [Example 6, 3-(2-Chloro-6-methyl-4-pyridyl)-2-(3-cyanophenyl)-N-[(1S)-2-hydroxy-1,2-dimethyl-propyl]pyrazolo[1,5-a]pyrimidine-5-carboxamide]	0.1	6	30	57	945	2
Cc1cc(-c2c(-c3cccc(C#N)c3)nn3ccc(N[C@@H](C)C(C)(C)O)nc23)cc(Cl)n1 [Example 2.15]	2	239	920	896	> 1000	59
Cc1cc(-c2c(-c3cccc(C#N)c3)nn3ccc(N4CCOC[C@H]4C(=O)O)nc23)cc(Cl)n1 [Example 2.3]	0.6	4	1250	21	1280	12
Cc1cc(-c2c(-c3cccc(C#N)c3)nn3ccc(OC4CCNCC4)nc23)cc(Cl)n1 [Example 24, 3-[3-(2-Chloro-6-methyl-4-pyridyl)-5-(4-piperidyloxy)pyrazolo[1,5-a]pyrimidin-2-yl]benzonitrile]	0.6	16	3630	216	> 1000	51
Cc1cc(-c2c(-c3cccc(C#N)c3)nn3ccc(C(=O)NC(C)(C)CN)nc23)cc(Cl)n1 [Example 7.3, N-(2-Amino-1,1-dimethyl-ethyl)-3-(2-chloro-6-methyl-4-pyridyl)-2-(3-cyanophenyl)pyrazolo[1,5-a]pyrimidine-5-carboxamide]	2.9	15	1800	44	> 1000	172
Cc1cc(-c2c(-c3cccc(C#N)c3)nn3ccc(N[C@H](C)C(C)(C)O)nc23)cc(Cl)n1 [Example 2.20]	3.4	18	660	263	> 1000	68
Cc1cc(-c2c(-c3cccc(C#N)c3C)nn3ccc(C(=O)NCC(C)(C)O)nc23)cc(Cl)n1 [Example 102, 3-(2-Chloro-6-methyl-4-pyridyl)-2-(3-cyano-2-methyl-phenyl)-N-(2-hydroxy-2-methyl-propyl)pyrazolo[1,5-a]pyrimidine-5-carboxamide]	0.5	32	140	233	> 1000	16

Continued by falling Ki [1], values first:

Ki [1] [nM]	Ki [2] [nM]	IC50 [3] [nM]	Ki [4] [nM]	Ki [5] [nM]	Compound	IC50 (human PBMCs) [nM]
9.2	43	740	62	> 1000	Cc1cc(-c2c(-c3cccc(C#N)c3)nn3ccc(N)nc23)cc(N)n1 [Example 27.1, 3-[5-Amino-3-(2-amino-6-methyl-4-pyridyl)pyrazolo[1,5-a]pyrimidin-2-yl]benzonitrile]	36
6.2	18	2540	123	2520	COc1cc(-c2c(-c3cccc(C#N)c3)nn3ccc(N)nc23)cc(C)n1 [Example 26.2, 3-[5-Amino-3-(2-methoxy-6-methyl-4-pyridyl)pyrazolo[1,5-a]pyrimidin-2-yl]benzonitrile]	69
2.2	5	560	58	2600	Cc1cc(-c2c(-c3cccc(C#N)c3)nn3ccc(NC[C@H](C)O)nc23)cc(Cl)n1 [Example 3.1]	23
1.9	168	260	280	> 1000	Cc1cc(-c2c(-c3cccc(C#N)c3)nn3ccc(NCC(C)(C)O)nc23)cc(C)n1 [Example 23.2]	25
1.1	60	370	231	> 1000	CO[C@H]1CN(C)C[C@@H]1NC(=O)c1ccn2nc(-c3cccc(C#N)c3)c(-c3cc(C)nc(Cl)c3)c2n1 [Example 6.14, 3-(2-Chloro-6-methyl-4-pyridyl)-2-(3-cyanophenyl)-N-[(3S,4S)-4-methoxy-1-methyl-pyrrolidin-3-yl]pyrazolo[1,5-a]pyrimidine-5-carboxamide]	18
1	14	470	20	> 1000	Cc1cc(-c2c(-c3cccc(C#N)c3)nn3ccc(C(=O)NCC4(C)CCCNC4)nc23)cc(Cl)n1 (stereo not drawn) [Example 7.18, 3-(2-Chloro-6-methyl-4-pyridyl)-2-(3-cyanophenyl)-N-[(3-methyl-3-piperidyl)methyl]pyrazolo[1,5-a]pyrimidine-5-carboxamide]	19
0.8	5	640	57	> 1000	Cc1cc(-c2c(-c3cccc(C#N)c3)nn3ccc(NC(N)=O)nc23)cc(Cl)n1 [Example 30, [3-(2-Chloro-6-methyl-4-pyridyl)-2-(3-cyanophenyl)pyrazolo[1,5-a]pyrimidin-5-yl]urea]	21
0.3	22	1460	5	186	Cc1cccnc1CNc1ccn2nc(-c3ccco3)c(C#N)c2n1 [Example 37, 2-(2-Furyl)-5-[(3-methyl-2-pyridyl)methylamino]pyrazolo[1,5-a]pyrimidine-3-carbonitrile]	13

Source: US20230203041A1, “ANTAGONISTS OF THE ADENOSINE A2A RECEPTOR” (AdoRx Therapeutics Limited, priority 2020, published 2023)
